Broadly, the IC50 is the concentration that inhibits the measured activity by half. By inhibition is commonly meant the relative decrease from the control value, in per cent. As a reminder, the EC50 is the concentration that produces a half-maximal response. Read a low EC50 as a more potent agent.

Active and inactive are the calls of the source. The calls are words filed in the database; no cut-off is given here.

The results in this text go back to ChEMBL document CHEMBL5532713, “Ergone Derivatives from the Deep-Sea-Derived Fungus Aspergillus terreus YPGA10 and 25,28-Dihydroxyergone-Induced Apoptosis in Human Colon Cancer SW620 Cells” (J Nat Prod, 2024).

Data set [1] relates to U-937. The data set is described as follows: Effect on cell survival in RSL3-induced human U-937 cells at 50 uM. It counts as functional, cell-based.
The subject of data set [2] is SW-620. Briefly: Antiproliferative activity against human SW-620 cells assessed as reduction in cell viability at 40 uM incubated for 48 hrs by CCK-8 assay. It counts as functional, cell-based. On the technique in general: Tetrazolium assays rely on reduction of a dye to a coloured formazan, in cell work by metabolically active cells.
The subject of another data set is MDA-MB-231. The data set is described as follows: Antiproliferative activity against human MDA-MB-231 cells assessed as reduction in cell viability by CCK-8 assay. The data set is classed as functional, cell-based. Conditions: dose 40.0 µM, time 48.0 hrs.
Another data set concerns MCF7. The data set is described as follows: Antiproliferative activity against human MCF7 cells assessed as reduction in cell viability by CCK-8 assay. Conditions: dose 40.0 µM, time 48.0 hrs. The data set is classed as functional, cell-based.
The test system of a further data set is PANC-1. Briefly: Antiproliferative activity against human PANC-1 cells assessed as reduction in cell viability by CCK-8 assay. It counts as functional, cell-based.
In the next data set the test system is SMMC-7721. The data set is described as follows: Antiproliferative activity against human SMMC-7721 cells assessed as reduction in cell viability by CCK-8 assay. The data set is classed as functional, cell-based.
Another data set relates to A549. Briefly: Antiproliferative activity against human A549 cells assessed as reduction in cell viability by CCK-8 assay. The data set is classed as functional, cell-based.
Data set [3] has as its system SW-620. The data set is described as follows: Antiproliferative activity against human SW-620 cells assessed as reduction in cell viability incubated for 48 hrs by CCK-8 assay. The following applies: for IC50: SW-620, 48 h. It counts as functional, cell-based.
Data set [4] is described as follows: Cytotoxicity against human BEAS-2B cells assessed as inhibition of cell growth at 40 uM incubated for 48 hrs by CCK-8 assay relative to control. The data set is classed as toxicity, cell-based.
The subject of data set [5] is SW-620. Briefly: Antiproliferative activity against human SW-620 cells assessed as inhibition of cell proliferation by measuring decrease in fluorescence intensity incubated for 48 hrs by EdU incorporation based fluorescence microscopic analysis. The data set is classed as functional. Conditions: dose 1.25-5 µM.
Data set [6] relates to SW-620. The data set is described as follows: Antiproliferative activity against human SW-620 cells assessed as change in F-actin cytoskeleton morphology at 1.25 uM incubated for 48 hrs by DAPI staining based laser confocal microscope analysis. It counts as functional, cell-based.
Data set [7] concerns SW-620. Briefly: Antiproliferative activity against human SW-620 cells assessed as change in F-actin cytoskeleton density at 2.5 to 5 uM incubated for 48 hrs by DAPI staining based laser confocal microscope analysis. It counts as functional, cell-based. Conditions: dose 2.5-5 µM.
Data set [8] relates to SW-620. Briefly: Induction of apoptosis in human SW-620 cells assessed as decrease in Bcl-2 expression at 1.25 to 5 uM incubated for 48 hrs by Western blotting analysis. The following applies: dose 1.25-5 µM. The data set is classed as functional, cell-based.
The subject of data set [9] is SW-620. Briefly: Induction of apoptosis in human SW-620 cells assessed as increase in Bax expression at 1.25 to 5 uM incubated for 48 hrs by Western blotting analysis. Conditions: dose 1.25-5 µM. The data set is classed as functional, cell-based.
Data set [10] deals with SW-620. Briefly: Induction of apoptosis in human SW-620 cells assessed as increase in Bax/Bcl-2 ratio incubated for 48 hrs by Western blotting analysis. It counts as functional, cell-based. The following applies: dose 1.25-5 µM. For orientation: A western blot detects proteins with antibodies after separation by electrophoresis.
The subject of data set [11] is SW-620. The data set is described as follows: Induction of apoptosis in human SW-620 cells assessed as viable cells at 1.25 uM incubated for 48 hrs by Annexin V FITC/PI staining based flow cytometry analysis (reference value: 90.0 %). The data set is classed as functional. Conditions: read-out: Activity. A general note: In flow cytometry, cells or beads pass a laser one at a time.

Data set [12] deals with SW-620. The data set is described as follows: Induction of apoptosis in human SW-620 cells assessed as early apoptotic cells at 1.25 uM incubated for 48 hrs by Annexin V FITC/PI staining based flow cytometry analysis (reference value: 5.00 %). The data set is classed as functional.
Data set [13] has as its system SW-620. Briefly: Induction of apoptosis in human SW-620 cells assessed as late apoptotic cells at 1.25 uM incubated for 48 hrs by Annexin V FITC/PI staining based flow cytometry analysis (reference value: 4.90 %). It counts as functional.
Data set [14] concerns SW-620. The data set is described as follows: Induction of apoptosis in human SW-620 cells assessed as necrotic cells at 1.25 uM incubated for 48 hrs by Annexin V FITC/PI staining based flow cytometry analysis (reference value: 0.057 %). The data set is classed as functional.
For data set [15], the system named is SW-620. The data set is described as follows: Induction of apoptosis in human SW-620 cells assessed as viable cells at 2.5 uM incubated for 48 hrs by Annexin V FITC/PI staining based flow cytometry analysis (reference value: 90.0 %). It counts as functional. The following applies: read-out: Activity.
The test system of data set [16] is SW-620. Briefly: Induction of apoptosis in human SW-620 cells assessed as early apoptotic cells at 2.5 uM incubated for 48 hrs by Annexin V FITC/PI staining based flow cytometry analysis (reference value: 5.00 %). The data set is classed as functional.
Data set [17] deals with SW-620. Briefly: Induction of apoptosis in human SW-620 cells assessed as late apoptotic cells at 2.5 uM incubated for 48 hrs by Annexin V FITC/PI staining based flow cytometry analysis (reference value: 4.90 %). It counts as functional.
Data set [18] concerns SW-620. The data set is described as follows: Induction of apoptosis in human SW-620 cells assessed as necrotic cells at 2.5 uM incubated for 48 hrs by Annexin V FITC/PI staining based flow cytometry analysis (reference value: 0.057 %). It counts as functional.
The test system of data set [19] is SW-620. The data set is described as follows: Induction of apoptosis in human SW-620 cells assessed as viable cells at 5 uM incubated for 48 hrs by Annexin V FITC/PI staining based flow cytometry analysis (reference value: 90.0 %). It counts as functional. Conditions: read-out: Activity.
The subject of data set [20] is SW-620. The data set is described as follows: Induction of apoptosis in human SW-620 cells assessed as early apoptotic cells at 5 uM incubated for 48 hrs by Annexin V FITC/PI staining based flow cytometry analysis (reference value: 5.00 %). It counts as functional.
For data set [21], the system named is SW-620. The data set is described as follows: Induction of apoptosis in human SW-620 cells assessed as late apoptotic cells at 5 uM incubated for 48 hrs by Annexin V FITC/PI staining based flow cytometry analysis (reference value: 4.90 %). It counts as functional.
Data set [22] concerns SW-620. Briefly: Induction of apoptosis in human SW-620 cells assessed as necrotic cells at 5 uM incubated for 48 hrs by Annexin V FITC/PI staining based flow cytometry analysis (reference value: 0.057 %). The data set is classed as functional.
Data set [23] has as its system U-937. The data set is described as follows: Inhibition of RSL3-induced ferroptosis in human U-937 cells. The data set is classed as functional, cell-based.
Data set [24] has as its system U-937. Briefly: Antiproliferative activity against human U-937 cells assessed as reduction in cell viability incubated for 48 hrs by CCK-8 assay. It counts as toxicity, cell-based. Conditions: u-937, 48 h, 50 µM.
Another data set deals with CCRF-CEM. The data set is described as follows: Antiproliferative activity against human CCRF-CEM cells assessed as reduction in cell viability incubated for 48 hrs by CCK-8 assay. It counts as functional, cell-based.
Another data set relates to Jurkat. The data set is described as follows: Antiproliferative activity against human Jurkat cells assessed as reduction in cell viability incubated for 48 hrs by CCK-8 assay. The data set is classed as functional, cell-based.
The next data set relates to THP-1. The data set is described as follows: Antiproliferative activity against human THP-1 cells assessed as reduction in cell viability incubated for 48 hrs by CCK-8 assay. The data set is classed as functional, cell-based. The following applies: THP-1, 48 h.
Another data set has as its system K562. Briefly: Antiproliferative activity against human K562 cells assessed as reduction in cell viability incubated for 48 hrs by CCK-8 assay. It counts as functional, cell-based. The following applies: K562, 48 h.

For `CO[C@H]1C[C@H]([C@H](C)/C=C/[C@H](CO)C(C)(C)O)[C@]2(C)C1=C1C=CC3=CC(=O)CC[C@]3(C)[C@H]1C[C@H]2O`, the result with U-937 [1] was Active.

Regarding `CC(=O)O[C@H]1C[C@H]([C@H](C)/C=C/[C@H](CO)C(C)(C)O)[C@]2(C)C1=C1C=CC3=CC(=O)CC[C@]3(C)[C@H]1C[C@H]2O`, in the data set on U-937 [1], the outcome was Active.

Consider `C[C@H](/C=C/[C@H](CO)C(C)(C)O)[C@H]1C[C@H](O)C2=C3C=CC4=CC(=O)CC[C@]4(C)[C@H]3C[C@@H](O)[C@@]21C`, for which, in the data set on U-937 [1], the outcome was Active.

For the compound `C[C@H](/C=C/[C@H](C)C(C)(C)O)[C@H]1C[C@H](O)C2=C3C=CC4=CC(=O)CC[C@]4(C)[C@H]3C[C@@H](O)[C@@]21C`, the outcome with U-937 [1] was Active.

For `C[C@H](/C=C/[C@H](CO)C(C)(C)O)[C@H]1CCC2=C3C=CC4=CC(=O)CC[C@]4(C)[C@H]3CC[C@@]21C`, the result with SW-620 [2], with SW-620 [6], in the data set with SW-620 [7], with SW-620 [8] and in the data set with SW-620 [9] was Active. The result with MDA-MB-231, in the data set with MCF7, in the data set with PANC-1, with SMMC-7721 and in the data set with A549 was inactive. Moreover, the Activity result in the data set with SW-620 [3] is “Dose-Dependent Effect”; in the data set on SW-620 [5], “Dose-Dependent Effect”; with SW-620 [10], “Dose-Dependent Effect”; with SW-620 [12], 6.2%; in the data set with SW-620 [13], 14.1%; in the data set with SW-620 [14], 0.63%. The Activity was found to be 12.4% in the data set with SW-620 [16]; 61.4% with SW-620 [17]; 2.55% in the data set on SW-620 [18]; 14.6% in the data set with SW-620 [20]; 80.8% in the data set on SW-620 [21]; 1.23% in the data set on SW-620 [22]. Further, the IC50 in the data set with SW-620 [3] was 3.1 µM. Moreover, in data set [4], the inhibition at 48 h, 40 µM is < 7%. Also, in the data set with SW-620 [11], the viability at 1.25 µM is 79.1%. The viability at 2.5 µM in the data set on SW-620 [15] amounted to 23.6%. Besides, the viability at 5 µM in the data set with SW-620 [19] amounted to 3.35%.

For `CO[C@@H]1C[C@H]([C@H](C)/C=C/[C@H](CO)C(C)(C)O)[C@]2(C)C1=C1C=CC3=CC(=O)CC[C@]3(C)[C@H]1C[C@H]2O`, the result with U-937 [1] was Active.

Consider `CC(=O)O[C@H]1C[C@H]([C@H](C)/C=C/[C@H](C)C(C)(O)CO)[C@]2(C)C1=C1C=CC3=CC(=O)CC[C@]3(C)[C@H]1C[C@H]2O` (stereo not given in full), for which the EC50 in the data set on U-937 [23] is 30 µM.

`COc1cccc2c1C(=O)c1c(O)c3c(c(O)c1C2=O)C[C@@](O)(C(=O)CO)C[C@@H]3O[C@H]1C[C@H](N)[C@H](O)[C@H](C)O1` [DOXORUBICIN]: the half-maximal inhibitory concentration (IC50) with SW-620 [3] was 2.3 µM.

With `C[C@H](/C=C/[C@H](CO)C(C)(C)O)[C@H]1CCC2=C3C=CC4=CC(=O)CC[C@]4(C)[C@H]3C[C@@H](O)[C@@]21C`, the result with SW-620 [2] and with U-937 [1] was Active. Besides, the outcome in the data set on MDA-MB-231, in the data set on MCF7, in the data set on PANC-1, in the data set on SMMC-7721 and in the data set on A549 was inactive. Besides, the Activity entry was “Dose-Dependent Effect” in the data set with SW-620 [3] and “Toxic” with U-937 [24]. Moreover, the IC50 in the data set with SW-620 [3] stood at 8.4 µM; with CCRF-CEM, 5.7 µM; with Jurkat, 5.7 µM; in the data set on THP-1, 5.7 µM; in the data set on K562, 5.7 µM. For the same compound, the inhibition at 48 h, 40 µM in data set [4] is < 7%.

For the compound `C[C@H](/C=C/[C@H](CO)C(C)(C)O)[C@H]1CC(=O)C2=C3C=CC4=CC(=O)CC[C@]4(C)[C@H]3C[C@@H](O)[C@@]21C`, the result with U-937 [1] was Active.
